Laboratory results from patent publication US20040265964A1, “Inducers of recombinant protein expression” (priority 2003, published 2004).

How the values were obtained:
Type in all cases: cell-based, Chinese hamster
[1] = system: fluorescent reporter gene DsRed under the control of an EASE/CMV promoter in CHO cells; experiment: DsRed fluorescent reporter induction in CHO cell pools, 96 well format; settings: for increase in DsRed expression per viable cell relative to control: 96 well, 6 days at 31° C.; for effectiveness as inducers of recombinant polypeptide production: compound screening, conditions not given
Experimental: FIG. 1 is a graph of the Effect of Combinations of Compounds on Induction of Reporter Gene. Pools of cells that expressed a fluorescent marker protein, DsRed, under the control of an EASE/CMV promoter were cultured in 96 well plates at 35° C. for 6 days in the presence of the indicated amount of compound. The amount of fluorescence is plotted as a function of the concentration of compound. Compounds used for induction were hexanohydroxamic acid (HHA) (diamonds), Hexamethylenebisacetamide (HMBA) (squares) and both HHA+HMBA (triangles).
Using a construct that expressed DsRed under the control of a EASE/CMV promoter, including an adenoviral tripartite leader, as an indicator for expression, various compounds were assayed.
Pools of cells were selected in -GHT medium for presence of the expression vector, and then plated in a 96 well format in serum-free medium. Hydrocinnamic acid was added to test wells at 0.5 millimolar, the temperature decreased from 37° C. to 31° C., and culture continued for 6 days at the reduce temperature. DsRed fluorescence was assayed on a Wallac Victor2 multilabel microplate reader (PerkinElmer Life Sciences, Boston, Mass.).

[2] = system: CHO cell line that expresses a soluble form of the IL1-receptor type II; experiment: IL1RII expression by CHO cell line in shake flasks
Experimental: The induction capacity of this compound was then tested in a different format on a different recombinant protein. […] Cells were grown in serum-free medium in shake flasks, hydrocinnamic acid was added to a concentration of 0.5 millimolar, and incubation continued at 31° C. for 9 to 10 days.

[3] = system: fluorescent reporter gene DsRed under the control of an EASE/CMV promoter in CHO cells; experiment: DsRed fluorescent reporter induction in CHO cell pools, 96 well format; settings: 6 days at 31° C.
[4] = system: CHO cell pools transfected with an expression vector encoding an antibody against the IL4 receptor; experiment: Antibody expression by unamplified CHO cell pools, 96 well plates; settings: for increase in antibody expression relative to control, compound used individually: single compound (HHA 10 micromolar, 3-phenylpropionohydroxamic acid 10 micromolar, HMBA 1 millimolar as in the combinations); for increase in antibody expression relative to control, compound used individually / increase in antibody expression relative to control: 4 days at 37° C.; for increase in antibody expression relative to control: 0.5 mM inducer (per example heading), average over experiments
Experimental: In addition, CHO cell pools transfected with an expression vector encoding an antibody against the IL4 receptor were tested (see U.S. Pat. No. 5,717,072, incorporated by reference herein). Unamplified pools were plated in serum-free medium in 96 well plates and incubated with inducer for 4 days at 37° C.

[5] = system: CHO cell that expresses a soluble form of a TNF receptor, TNFR:Fc; experiment: TNFR:Fc expression by CHO cells in shake flasks; settings: 7 days at a reduced temperature
Excerpt: Another cell line tested was a CHO cell that expresses a soluble form of a TNF receptor, TNFR:Fc (U.S. Pat. No. 5,605,690, incorporated by reference herein). […]

[6] = 0.5 mM compound, average over experiments
[7] = 0.5 millimolar compound, serum-free medium, 31° C. for 9 to 10 days
[8] = 0.5 mM compound, serum-free medium

With `CCCCNC(C)=O` [N-butylacetamide] the “increase in DsRed expression per viable cell relative to control” value ([1]; 1.0 millimolar compound, average of 2 experiments) was 77%.

For `O=C(O)CCCc1ccccc1` [4-phenylbutyric acid], the “increase in DsRed expression per viable cell relative to control” value [1, 6] was 60% and the “increase in IL1RII expression relative to control” value [2, 7] was 21%.

For `CCCCCC(=O)NO` [HHA, hexanohydroxamic acid], the “increase in DsRed expression relative to the control” value ([3]; 10 micromolar HHA alone) was 48%, the “increase in IL1RII expression relative to control” value ([2]; 10 micromolar HHA, 31° C. for 9 days) was 19% and the “increase in antibody expression relative to control, compound used individually” value [4] was “did not have a significant increase”. For the same compound, the “increase in TNFR:Fc expression relative to control cells” value ([5]; 10 micromolar HHA) was 19% and the “increase in TNFR:Fc expression relative to control cells” value ([5]; 20 micromolar HHA) was 11%.

With `O=C(O)CCCCCC(=O)O` [pimelic acid, reference compound] the “effectiveness as inducers of recombinant polypeptide production” value (“effectiveness as inducers” below) [1] was “ineffective”.

For `O=C(O)CCCCc1ccccc1` [5-phenylvaleric acid], the “increase in DsRed expression per viable cell relative to control” value [1, 6] was 40%, the “increase in IL1RII expression relative to control” value [2, 7] was 44% and the “increase in antibody expression on day 3” value ([4]; 0.5 mM 5-phenylvaleric acid, 37° C., day 3) was “no increase”. The “increase in antibody expression relative to control” value [4] was 40% and the “increase in TNFR:Fc expression relative to control cells” value [5, 8] was 33%.

For `CC(CC(=O)O)C(=O)O` (centres unmarked) [methylsuccinic acid, reference compound], the “effectiveness as inducers” value [1] was “ineffective”.

For `O=C(O)CC(O)(CC(=O)O)C(=O)[O-].[Na+]` [sodium dihydrogen citrate, reference compound], the “effectiveness as inducers” value [1] was “ineffective”.

In the case of `Cc1ccc(CCC(=O)O)cc1` [3-(4-methylphenyl)propionic acid], the “increase in DsRed expression per viable cell relative to control” value [1, 6] is reported as 70% and the “increase in IL1RII expression relative to control” value [2, 7] is reported as 15%.

In the case of `O=C(CCc1ccccc1)NO` [3-phenylpropionohydroxamic acid], the “increase in antibody expression relative to control, compound used individually” value [4] is reported as “not a significant increase”.

In the case of `CC(=O)NCCCCCCNC(C)=O` [HMBA, hexamethylene bisacetamide, reference compound], the “increase in DsRed expression relative to the control” value ([3]; 1 millimolar HMBA alone) is reported as 20%, the “increase in antibody expression relative to control, compound used individually” value [4] is reported as “not a significant increase” and the “increase in TNFR:Fc expression relative to control cells” value ([5]; 1.0 millimolar HMBA alone) is reported as 14%.

With `O=C(O)CCc1ccccc1` [hydrocinnamic acid] the “increase in DsRed expression per viable cell relative to control” value [1, 6] was 60%, the “increase in IL1RII expression relative to control” value [2, 7] was 22% and the “increase in antibody expression relative to control” value [4] was 5%. For the same compound, the “increase in TNFR:Fc expression relative to control cells” value [5, 8] was 20%.
